Test results taken from the CheMixHub viscosity set.
± gives the uncertainty stated by the source.

Assay: xn = mol fraction of the nth substance listed

## O=C(O)C(Cl)Cl + [Cl-].[Cl-].[Cl-].[Cl-].[Sn+4]
308.15 K, 101 kPa, x2 = 0.1
  viscosity: 3.657 ± 0.15 mPa·s
308.15 K, 101 kPa, x2 = 0.2027
  viscosity: 2.621 ± 0.11 mPa·s
308.15 K, 101 kPa, x2 = 0.3211
  viscosity: 2.121 ± 0.088 mPa·s
308.15 K, 101 kPa, x2 = 0.5002
  viscosity: 1.445 ± 0.06 mPa·s
308.15 K, 101 kPa, x2 = 0.805
  viscosity: 0.831 ± 0.035 mPa·s
323.15 K, 101 kPa, x2 = 0.1
  viscosity: 2.609 ± 0.11 mPa·s
323.15 K, 101 kPa, x2 = 0.2027
  viscosity: 1.982 ± 0.083 mPa·s
323.15 K, 101 kPa, x2 = 0.3211
  viscosity: 1.63 ± 0.068 mPa·s
323.15 K, 101 kPa, x2 = 0.5002
  viscosity: 1.09 ± 0.046 mPa·s
323.15 K, 101 kPa, x2 = 0.805
  viscosity: 0.705 ± 0.029 mPa·s

## CCCCCCCCN + CCCCN(CCCC)CCCC
303.15 K, 101 kPa, x2 = 0.1005
  viscosity: 1.149 ± 0.0095 mPa·s
303.15 K, 101 kPa, x2 = 0.202
  viscosity: 1.138 ± 0.0094 mPa·s
303.15 K, 101 kPa, x2 = 0.3961
  viscosity: 1.126 ± 0.0093 mPa·s
303.15 K, 101 kPa, x2 = 0.5022
  viscosity: 1.125 ± 0.0093 mPa·s
303.15 K, 101 kPa, x2 = 0.5949
  viscosity: 1.127 ± 0.0093 mPa·s
303.15 K, 101 kPa, x2 = 0.7991
  viscosity: 1.14 ± 0.0094 mPa·s
303.15 K, 101 kPa, x2 = 0.8964
  viscosity: 1.151 ± 0.0095 mPa·s
313.15 K, 101 kPa, x2 = 0.1005
  viscosity: 0.9719 ± 0.0084 mPa·s
313.15 K, 101 kPa, x2 = 0.202
  viscosity: 0.9612 ± 0.0083 mPa·s
313.15 K, 101 kPa, x2 = 0.3961
  viscosity: 0.9507 ± 0.0083 mPa·s
313.15 K, 101 kPa, x2 = 0.5022
  viscosity: 0.9506 ± 0.0083 mPa·s
313.15 K, 101 kPa, x2 = 0.5949
  viscosity: 0.9532 ± 0.0083 mPa·s
313.15 K, 101 kPa, x2 = 0.7991
  viscosity: 0.97 ± 0.0084 mPa·s
313.15 K, 101 kPa, x2 = 0.8964
  viscosity: 0.9821 ± 0.0084 mPa·s

## C[N+](C)(C)CCO.[Cl-] + CC(O)CO
293.15 K, 100 kPa, x1 = 0.25
  viscosity: 89.38 ± 2 mPa·s
293.15 K, 101 kPa, x2 = 0.8
  viscosity: 95.09 ± 2.8 mPa·s
293.15 K, 101.3 kPa, x2 = 0.7498
  viscosity: 94.05 ± 4.2 mPa·s
293.15 K, 101.3 kPa, x2 = 0.8003
  viscosity: 80.19 ± 3.5 mPa·s
293.15 K, 101.3 kPa, x2 = 0.8328
  viscosity: 73.34 ± 3.1 mPa·s
293.15 K, 101.3 kPa, x2 = 0.8567
  viscosity: 70.57 ± 2.9 mPa·s
298 K, 100 kPa, x1 = 0.333
  viscosity: 95.5 ± 7.9 mPa·s
298 K, 101.3 kPa, x1 = 0.333
  viscosity: 70 ± 2 mPa·s
298.15 K, 100 kPa, x1 = 0.25
  viscosity: 68.43 ± 1.4 mPa·s
298.15 K, 101.3 kPa, x2 = 0.7498
  viscosity: 72.1 ± 3.1 mPa·s
298.15 K, 101.3 kPa, x2 = 0.8003
  viscosity: 61.49 ± 2.5 mPa·s
298.15 K, 101.3 kPa, x2 = 0.8328
  viscosity: 57.12 ± 2.3 mPa·s
298.15 K, 101.3 kPa, x2 = 0.8567
  viscosity: 55.1 ± 2.2 mPa·s
298.15 K, 101.33 kPa, x2 = 0.7
  viscosity: 36 ± 4 mPa·s
303 K, 100 kPa, x1 = 0.333
  viscosity: 74.2 ± 6.1 mPa·s
303.15 K, 100 kPa, x1 = 0.25
  viscosity: 53.34 ± 1.1 mPa·s
303.15 K, 101 kPa, x2 = 0.8
  viscosity: 56.64 ± 1.2 mPa·s
303.15 K, 101.3 kPa, x2 = 0.7498
  viscosity: 56.26 ± 2.3 mPa·s
303.15 K, 101.3 kPa, x2 = 0.8003
  viscosity: 47.74 ± 2 mPa·s
303.15 K, 101.3 kPa, x2 = 0.8328
  viscosity: 44.41 ± 1.8 mPa·s
303.15 K, 101.3 kPa, x2 = 0.8567
  viscosity: 43.01 ± 1.8 mPa·s
308 K, 100 kPa, x1 = 0.333
  viscosity: 57.6 ± 4.7 mPa·s
308.15 K, 100 kPa, x1 = 0.25
  viscosity: 42.26 ± 0.88 mPa·s
308.15 K, 101.3 kPa, x2 = 0.7498
  viscosity: 44.5 ± 1.9 mPa·s
308.15 K, 101.3 kPa, x2 = 0.8003
  viscosity: 37.47 ± 1.6 mPa·s
308.15 K, 101.3 kPa, x2 = 0.8328
  viscosity: 34.61 ± 1.4 mPa·s
308.15 K, 101.3 kPa, x2 = 0.8567
  viscosity: 33.33 ± 1.4 mPa·s
313 K, 100 kPa, x1 = 0.333
  viscosity: 46.2 ± 3.7 mPa·s
313.15 K, 100 kPa, x1 = 0.25
  viscosity: 33.93 ± 0.71 mPa·s
313.15 K, 101 kPa, x2 = 0.8
  viscosity: 36.06 ± 0.77 mPa·s
313.15 K, 101.3 kPa, x2 = 0.7498
  viscosity: 35.89 ± 1.5 mPa·s
313.15 K, 101.3 kPa, x2 = 0.8003
  viscosity: 30.4 ± 1.3 mPa·s
313.15 K, 101.3 kPa, x2 = 0.8328
  viscosity: 27.67 ± 1.1 mPa·s
313.15 K, 101.3 kPa, x2 = 0.8567
  viscosity: 26.42 ± 1.1 mPa·s
318 K, 100 kPa, x1 = 0.333
  viscosity: 37.9 ± 3.1 mPa·s
318.15 K, 100 kPa, x1 = 0.25
  viscosity: 27.71 ± 0.58 mPa·s
318.15 K, 101.3 kPa, x2 = 0.7498
  viscosity: 29.15 ± 1.2 mPa·s
318.15 K, 101.3 kPa, x2 = 0.8003
  viscosity: 24.7 ± 1 mPa·s
318.15 K, 101.3 kPa, x2 = 0.8328
  viscosity: 22.49 ± 0.93 mPa·s
318.15 K, 101.3 kPa, x2 = 0.8567
  viscosity: 21.11 ± 0.87 mPa·s
323 K, 100 kPa, x1 = 0.333
  viscosity: 31.8 ± 2.6 mPa·s
323 K, 101.3 kPa, x1 = 0.333
  viscosity: 19 ± 2 mPa·s
323.15 K, 100 kPa, x1 = 0.25
  viscosity: 22.88 ± 0.48 mPa·s
323.15 K, 101 kPa, x2 = 0.8
  viscosity: 24.26 ± 0.53 mPa·s
323.15 K, 101.3 kPa, x2 = 0.7498
  viscosity: 24.25 ± 1 mPa·s
323.15 K, 101.3 kPa, x2 = 0.8003
  viscosity: 20.43 ± 0.85 mPa·s
323.15 K, 101.3 kPa, x2 = 0.8328
  viscosity: 18.56 ± 0.77 mPa·s
323.15 K, 101.3 kPa, x2 = 0.8567
  viscosity: 17.41 ± 0.72 mPa·s
